“Also recorded” adds a separate entry of the source.
Tests used:
[1] = tested on: desiccating stress-induced dry eye; assay: Tear production by phenol red thread test in CEC dry eye mice; format: in vivo, C57BL/6 mice; conditions: for ability to induce tear production (alanine scanning of the 29mer): CEC dry eye mice, phenol red thread method (FIG. 9)
Procedure: (§1) Dry eye was induced by placing mice in a controlled environment chamber (CEC) as previously described (Barabino et al., 2005). Briefly, mice placed in the CEC were exposed to a relative humidity (RH)<25%, temperature of 20 to 22° C., and airflow of 15 L/min, 12 hours per day. Non-stressed (NS) mice without stress-induced dry eye were kept in a normal environment (RH >50%, no air flow, temperature of 21-23° C.) for the same duration. Corneal fluorescein staining and
Tear production was measured with phenol red-impregnated cotton threads (Zone-Quick; Oasis, Glendora, CA). The validity of this test in mice was performed as previously described (Dursun et al., 2002). The threads were held with jeweler forceps and placed in the lateral canthus for 60 seconds. The tear production is expressed in millimeters of thread that is wet by the tear and turned red.
To determine whether PDSP have therapeutic effects in a desiccating stress (DS)-induced ocular surface defects, mice were housed at controlled environment chamber (CEC) for 14 days to create ocular surface disruption. After 14 days in CEC, we used mice with fluorescence scores that are above 2 for the first experiments (FIG. 1A). […]

C2C12 cells = assay: Cell viability of C2C12 cells in culture (MTT assay), alanine scanning; format: cell-based; conditions: C2C12 cell cultures (FIG. 10)
Procedure: This was tested with cell viability in cell cultures. […] Cell viability may be assessed with staining and cell number counts or with MTT assays. These techniques are well known in the art.

[2] = tested on: desiccating stress-induced dry eye; assay: Corneal fluorescein staining in desiccating stress-induced dry eye (CEC) mice; format: in vivo, C57BL/6 mice; conditions: therapeutic: CEC 14 days to induce dry eye, then peptide on the eyes for 5 days
Procedure: In an animal model for dry eye diseases, mice were placed in a controlled environment chamber (CEC) to induce dry eyes as previously described (Barabino et al., 2005). Mice placed in the CEC were exposed to a relative humidity (RH)<25%, temperature of 20 to 22° C., with an airflow of 15 L/min, 12 hours per day. Non-Stressed mice were kept in a normal environment (RH >50%, no air flow, temperature of 21-23° C.) for the same duration. After 14 days, non-stressed mice were treated with vehicle, while the stressed mice were treated with either a test peptide (e.g., the 29mer PDSP) or vehicle solution (Vehicle group) for 5 days. Then, the cornea was examined with fluorescein staining.
Seven to 8-week-old female C57BL/6 mice were used for these experiments. Experimental procedures were approved by the Mackay Memorial Hospital Review Board and conducted according to the ARVO Statement for the Use of Animals in Ophthalmic and Vision Research.
as §1
Animals were anesthetized by an intraperitoneal injection of a mixture of zoletil (6 mg/kg) and xylazine (3 mg/kg). Corneal epithelial injury was determined by staining with topical fluorescein (Fluor-I-Strip, Ayerst Laboratories, Philadelphia, Pa.). Corneal fluorescein staining was examined with a slit-lamp biomicroscope under cobalt blue light and photographed with a digital camera. Dye staining of the cornea was scored in a manner as follows: score 0 for no punctuate staining; score 1 when less than one third of the cornea was stained; score 2 when two thirds or less was stained; and score 3 when more than two thirds was stained (Horwath-Winter J 2013).
To determine whether PDSP have therapeutic effects in a desiccating stress (DS)-induced ocular surface defects, mice were housed at controlled environment chamber (CEC) for 14 days to create ocular surface disruption. After 14 days in CEC, we used mice with fluorescence scores that are above 2 for the first experiments (FIG. 1A). Subsequently, dry eyes were treated topically with PDSP at 25-200 μM (3 times/day) or PDSP vehicle (1% CMC in BSS) for another 5 days while maintaining the same desiccating stress protocol.
To investigate whether the PDSP can suppress DS-induced corneal epithelial disruption, we applied the 14-day desiccating stress protocol to mice, and treated these mice topically with PDSP 3 times a day.

[3] = tested on: desiccating stress-induced dry eye; assay: as above; format: in vivo, C57BL/6 mice; conditions: CEC 14 days, then peptide for 3 days (FIG. 11); listed as mouse PDSP

R106A: human PDSP 29mer with alanine substitution at residue 14 (R106) (SLGAEQRTESIIHAALYYDLISSPDIHGT; UniProt P36955 93-121, looked up, variant R106A)
ability to induce tear production (alanine scanning of the 29mer) [1]: substantial losses of abilities of PDSP to induce tear production | ability to sustain/enhance viabilities of the cells (alanine scanning of the 29mer) (C2C12 cells): substantially abolished | corneal surface damage by fluorescein staining [2]: substantial loss of PDSP activity

A96G: human PDSP 29mer with glycine substitution at residue 4 (A96) (Ac-SLGGEQRTESIIHRALYYDLISSPDIHGT-NH2; UniProt P36955 93-121, looked up, variant A96G)
ability to induce tear production (alanine scanning of the 29mer) [1]: substantial losses of abilities of PDSP to induce tear production | ability to sustain/enhance viabilities of the cells (alanine scanning of the 29mer) (C2C12 cells): substantially abolished | corneal surface damage by fluorescein staining [2]: substantial loss of PDSP activity

moPDSP 29mer: corresponding mouse sequence SLGAEHRTESVIHRALYYDLITNPDIHST (SEQ ID NO:5) (listed as Mus musculus)
tear production (phenol red thread), human vs mouse PDSP ([1]; CEC 14 days, then peptide for 3 days (FIG. 12), listed as mouse PDSP): capable of restore; also recorded: improved tear productions to the same extent | corneal damage by corneal fluorescein staining, human vs mouse 29mer [3]: capable of restore the ocular surface damages

Q98A: human PDSP 29mer with alanine substitution at residue 6 (Q98) (SLGAEARTESIIHRALYYDLISSPDIHGT; UniProt P36955 93-121, looked up, variant Q98A)
ability to induce tear production (alanine scanning of the 29mer) [1]: substantial losses of abilities of PDSP to induce tear production | ability to sustain/enhance viabilities of the cells (alanine scanning of the 29mer) (C2C12 cells): substantially abolished | corneal surface damage by fluorescein staining [2]: substantial loss of PDSP activity

I104A: human PDSP 29mer with alanine substitution at residue 12 (I104) (SLGAEQRTESIAHRALYYDLISSPDIHGT; UniProt P36955 93-121, looked up, variant I104A)
ability to induce tear production (alanine scanning of the 29mer) [1]: substantial losses of abilities of PDSP to induce tear production | ability to sustain/enhance viabilities of the cells (alanine scanning of the 29mer) (C2C12 cells): substantially abolished | corneal surface damage by fluorescein staining [2]: substantial loss of PDSP activity

— patent US11760784B2, “Compositions comprising PEDF-derived short peptides and uses thereof” (BRIM Biotechnology, Inc., priority 2016, dated 2023)
